Source: ChEMBL document CHEMBL1833947, “Synthesis and biological investigation of potential atypical antipsychotics with a tropane core. Part 1” (Eur J Med Chem, 2011)
Calls of active or inactive are those of the source. The rule behind the calls is not given here.

Columns and labels:
[1] = target: T1, 5-hydroxytryptamine receptor 1A (Rattus norvegicus, UniProt P19327); assay: Displacement of [3H]8OH-DPAT from 5HT1A in rat brain cerebral cortex after 15 mins by scintillation counting; type: tissue-based
T1 sequence (P19327 whole entry): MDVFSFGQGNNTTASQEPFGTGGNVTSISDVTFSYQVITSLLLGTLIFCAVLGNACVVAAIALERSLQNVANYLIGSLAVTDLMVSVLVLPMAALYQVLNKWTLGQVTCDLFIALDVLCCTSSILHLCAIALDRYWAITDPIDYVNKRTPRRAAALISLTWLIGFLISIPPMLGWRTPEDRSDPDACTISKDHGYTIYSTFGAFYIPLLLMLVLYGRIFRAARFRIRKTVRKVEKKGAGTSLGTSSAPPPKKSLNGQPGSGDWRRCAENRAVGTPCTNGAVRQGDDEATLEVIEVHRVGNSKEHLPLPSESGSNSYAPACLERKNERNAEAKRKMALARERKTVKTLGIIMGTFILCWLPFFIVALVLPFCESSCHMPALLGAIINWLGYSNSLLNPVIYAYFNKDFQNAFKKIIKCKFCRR

[2] = target: 5-hydroxytryptamine receptor 2A (Rattus norvegicus, UniProt P14842); assay: Displacement of [3H]ketanserin from 5HT2A in rat brain cerebral cortex after 20 mins by scintillation counting; type: tissue-based
D(2) dopamine receptor = D(2) dopamine receptor (Rattus norvegicus, UniProt P61169); assay: Displacement of [3H]spiperone from dopamine D2 receptor in rat striatum tissue after 20 mins by scintillation counting; type: tissue-based
Mus musculus [3] = assay: Antipsychotic activity in mouse assessed as reversal of apomorphine-induced mesh climbing response at 10 mg/kg, ip administered 10 mins prior to apomorphine challenge measured after 20 mins; type: functional, organism-based; set-up: dose 10 mg/kg
Mus musculus [4] = assay: Antipsychotic activity in mouse assessed as reversal of apomorphine-induced mesh climbing response at 50 mg/kg, ip administered 10 mins prior to apomorphine challenge measured after 30 mins; type: functional, organism-based; set-up: dose 50 mg/kg
Mus musculus [5] = assay: Antipsychotic activity in mouse assessed as reversal of apomorphine-induced mesh climbing response at 50 mg/kg, ip administered 20 mins prior to apomorphine challenge measured after 120 mins
Rattus norvegicus [6] = assay: Antipsychotic activity in 8-OH-DPAT-stimulated rat assessed as lower lip retractions at 10 mg/kg, iv administered 45 mins before 8-OH-DPAT challenge measured after 15 to 45 mins (reference value: 2.9 retractions); type: functional
Rattus norvegicus [7] = assay: Antipsychotic activity in 8-OH-DPAT-stimulated rat assessed as lower lip retractions at 20 mg/kg, iv administered 45 mins before 8-OH-DPAT challenge measured after 15 to 45 mins (reference value: 2.9 retractions); type: functional
Mus musculus [8] = assay: Antidepressant-like activity in Swiss albino mouse assessed as immobilization time at 10 mg/kg, ip after 30 mins by forced swim test; type: functional
Mus musculus [9] = assay: Antidepressant-like activity in Swiss albino mouse assessed as immobilization time at 20 mg/kg, ip after 30 mins by forced swim test; type: functional, organism-based; set-up: dose 20 mg/kg
Mus musculus [10] = assay: Antipsychotic activity in mouse assessed as reversal of apomorphine-induced mesh climbing response at 10 mg/kg, ip administered 10 mins prior to apomorphine challenge measured after 40 mins; type: functional, organism-based; set-up: dose 10 mg/kg
Mus musculus [11] = assay: Antipsychotic activity in mouse assessed as reversal of apomorphine-induced mesh climbing response at 10 mg/kg, ip administered 10 mins prior to apomorphine challenge measured after 50 mins; type: functional, organism-based; set-up: dose 10 mg/kg
Mus musculus [12] = assay: Antipsychotic activity in mouse assessed as reversal of apomorphine-induced mesh climbing response at 10 mg/kg, ip administered 10 mins prior to apomorphine challenge measured after 60 mins; type: functional, organism-based; set-up: dose 10 mg/kg
Mus musculus [13] = assay: Antipsychotic activity in mouse assessed as reversal of DOI-induced head twitches at 5 mg/kg, ip administered 30 mins before DOI challenge; type: functional; details: route intraperitoneal
Mus musculus [14] = assay: Antipsychotic activity in mouse assessed as reversal of DOI-induced head twitches at 10 mg/kg, ip administered 30 mins before DOI challenge; type: functional; details: route intraperitoneal
Mus musculus [15] = assay: Antipsychotic activity in mouse assessed as reversal of DOI-induced head twitches at 20 mg/kg, ip administered 30 mins before DOI challenge; type: functional; details: route intraperitoneal
Rattus norvegicus [16] = assay: Induction of 5HT1A receptor in rat assesses as lower lip retractions at 10 mg/kg, iv after 15 mins (reference value: 0.1 +/- 0.1 retractions); type: functional
Rattus norvegicus [17] = assay: Induction of 5HT1A receptor in rat assesses as lower lip retractions at 20 mg/kg, iv after 15 mins (reference value: 0.1 +/- 0.1 retractions); type: functional
Mus musculus [18] = species: Mus musculus; details: Swiss albino, 5 mg/kg
Description: Hypothermic effect in Swiss albino mouse assessed as change in body temperature at 5 mg/kg, ip measured after 30 mins

Mus musculus [19] = species: Mus musculus; details: Swiss albino, 10 mg/kg
Description: Hypothermic effect in Swiss albino mouse assessed as change in body temperature at 10 mg/kg, ip measured after 30 mins

Mus musculus [20] = species: Mus musculus; details: Swiss albino, 20 mg/kg
Description: Hypothermic effect in Swiss albino mouse assessed as change in body temperature at 20 mg/kg, ip measured after 30 mins

Mus musculus [21] = species: Mus musculus; details: Swiss albino, 5 mg/kg; remark: listed apart in the source
Description: Hypothermic effect in Swiss albino mouse assessed as change in body temperature at 5 mg/kg, ip measured after 60 mins

Mus musculus [22] = species: Mus musculus; details: Swiss albino, 10 mg/kg; remark: listed apart in the source
Description: Hypothermic effect in Swiss albino mouse assessed as change in body temperature at 10 mg/kg, ip measured after 60 mins

Mus musculus [23] = species: Mus musculus; details: Swiss albino, 20 mg/kg; remark: listed apart in the source
Description: Hypothermic effect in Swiss albino mouse assessed as change in body temperature at 20 mg/kg, ip measured after 60 mins

Mus musculus [24] = species: Mus musculus; details: Swiss albino, 5 mg/kg; remark: listed apart in the source
Description: Hypothermic effect in Swiss albino mouse assessed as change in body temperature at 5 mg/kg, ip measured after 90 mins

Mus musculus [25] = species: Mus musculus; details: Swiss albino, 10 mg/kg; remark: listed apart in the source
Description: Hypothermic effect in Swiss albino mouse assessed as change in body temperature at 10 mg/kg, ip measured after 90 mins

Mus musculus [26] = species: Mus musculus; details: Swiss albino, 20 mg/kg; remark: listed apart in the source
Description: Hypothermic effect in Swiss albino mouse assessed as change in body temperature at 20 mg/kg, ip measured after 90 mins

Mus musculus [27] = species: Mus musculus; details: Swiss albino, 5 mg/kg; remark: listed apart in the source
Description: Hypothermic effect in Swiss albino mouse assessed as change in body temperature at 5 mg/kg, ip measured after 120 mins

Mus musculus [28] = species: Mus musculus; details: Swiss albino, 10 mg/kg; remark: listed apart in the source
Description: Hypothermic effect in Swiss albino mouse assessed as change in body temperature at 10 mg/kg, ip measured after 120 mins

Mus musculus [29] = species: Mus musculus; details: Swiss albino, 20 mg/kg; remark: listed apart in the source
Description: Hypothermic effect in Swiss albino mouse assessed as change in body temperature at 20 mg/kg, ip measured after 120 mins

Mus musculus [30] = species: Mus musculus; details: Swiss albino, 20 mg/kg; remark: listed apart in the source
Description: Hypothermic effect in Swiss albino mouse assessed as change in body temperature at 20 mg/kg, ip measured after 30 mins in presence of 0.1 mg/kg, sc 5-HT1A antagonist WAY 100635

Mus musculus [31] = species: Mus musculus; details: Swiss albino, 20 mg/kg; remark: listed apart in the source
Description: Hypothermic effect in Swiss albino mouse assessed as change in body temperature at 20 mg/kg, ip measured after 60 mins in presence of 0.1 mg/kg, sc 5-HT1A antagonist WAY 100635

5-hydroxytryptamine receptor 2A, sequence (P14842 whole entry): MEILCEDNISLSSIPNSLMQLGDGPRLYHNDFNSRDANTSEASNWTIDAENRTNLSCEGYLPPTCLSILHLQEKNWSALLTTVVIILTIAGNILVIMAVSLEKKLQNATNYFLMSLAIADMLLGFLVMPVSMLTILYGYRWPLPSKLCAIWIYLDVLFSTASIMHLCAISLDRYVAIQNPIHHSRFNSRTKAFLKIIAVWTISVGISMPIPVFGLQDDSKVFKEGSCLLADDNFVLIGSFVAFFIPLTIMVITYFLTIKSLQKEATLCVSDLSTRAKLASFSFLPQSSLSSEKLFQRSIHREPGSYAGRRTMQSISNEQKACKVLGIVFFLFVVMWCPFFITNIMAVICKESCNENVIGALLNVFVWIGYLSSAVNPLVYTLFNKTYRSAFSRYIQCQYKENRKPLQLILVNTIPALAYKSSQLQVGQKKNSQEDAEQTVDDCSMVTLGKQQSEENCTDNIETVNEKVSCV
D(2) dopamine receptor, sequence (P61169 whole entry): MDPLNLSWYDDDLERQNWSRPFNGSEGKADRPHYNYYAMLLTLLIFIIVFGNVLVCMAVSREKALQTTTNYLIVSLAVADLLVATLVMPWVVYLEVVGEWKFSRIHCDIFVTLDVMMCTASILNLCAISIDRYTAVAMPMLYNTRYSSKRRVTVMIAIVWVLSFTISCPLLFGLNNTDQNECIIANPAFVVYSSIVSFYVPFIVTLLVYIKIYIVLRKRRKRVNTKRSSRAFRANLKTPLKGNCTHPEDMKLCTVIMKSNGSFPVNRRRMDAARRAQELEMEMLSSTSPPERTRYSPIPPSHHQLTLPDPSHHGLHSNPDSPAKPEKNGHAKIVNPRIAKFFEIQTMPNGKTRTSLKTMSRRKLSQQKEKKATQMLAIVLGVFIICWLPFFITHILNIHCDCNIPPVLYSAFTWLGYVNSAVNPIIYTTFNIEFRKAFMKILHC

Work on COc1cccc(C(=O)N[C@@H]2CC3CC[C@H](C2)N3Cc2cccnc2)c1OC (single isomer, unassigned) yielded a Ki [1] of 3300 nM, a Ki [2] of 956 nM and a Ki (D(2) dopamine receptor) of 11.5 nM.
In the case of COc1ccc(C(=O)N[C@H]2CC3CC[C@H](C2)N3Cc2ccco2)c(OC)c1 (single isomer, unassigned), the Ki [1] is reported as 19000 nM, the Ki [2] is reported as 1300 nM and the Ki (D(2) dopamine receptor) is reported as 652 nM.
In the case of COc1cccc(C(=O)N[C@@H]2CC3CC[C@H](C2)N3Cc2ccco2)c1OC (single isomer, unassigned; 14a), the Ki [1] is reported as greater than 100000 nM, the Ki [2] is reported as 2500 nM and the Ki (D(2) dopamine receptor) is reported as greater than 100000 nM.
In the case of COc1cccc(C(=O)N[C@H]2CC3CC[C@H](C2)N3CC2CCCO2)c1 (single isomer, unassigned), the Ki [1] is reported as 10300 nM, the Ki [2] is reported as 1100 nM and the Ki (D(2) dopamine receptor) is reported as greater than 100000 nM.
COc1ccc(OC)c(C(=O)N[C@H]2CC3CC[C@H](C2)N3Cc2ccco2)c1 (single isomer, unassigned) was tested, and the Ki [1] was 9600 nM, the Ki [2] was 1100 nM and the Ki (D(2) dopamine receptor) was 1100 nM.
In the case of COc1ccccc1C(=O)N[C@H]1CC2CC[C@H](C1)N2Cc1ccco1 (single isomer, unassigned), the Ki [1] is reported as 6100 nM, the Ki [2] is reported as 6000 nM and the Ki (D(2) dopamine receptor) is reported as 1000 nM.
Molecule COc1cc(C(=O)N[C@H]2CC3CC[C@H](C2)N3Cc2ccco2)cc(OC)c1OC (single isomer, unassigned) has a Ki [1] of 2900 nM, a Ki [2] of 1100 nM and a Ki (D(2) dopamine receptor) of 52200 nM.
For COc1cc(OC)cc(C(=O)N[C@H]2CC3CC[C@H](C2)N3Cc2ccco2)c1 (single isomer, unassigned), the Ki [1] was 4400 nM, the Ki [2] was 929 nM and the Ki (D(2) dopamine receptor) was 13200 nM.
O=C(N[C@@H]1CC2CC[C@H](C1)N2Cc1ccccc1)c1cccc2ccccc12 (single isomer, unassigned) gave a Ki [1] of 532 nM, a Ki [2] of 394 nM and a Ki (D(2) dopamine receptor) of 2900 nM.
In the case of COc1ccc(F)cc1C(=O)N[C@@H]1CC2CC[C@H](C1)N2CC1CCCO1 (single isomer, unassigned), the Ki [1] is reported as 10100 nM, the Ki [2] is reported as 1100 nM and the Ki (D(2) dopamine receptor) is reported as 12400 nM.
Work on O=C(N[C@@H]1CC2CC[C@H](C1)N2CC1CCCO1)c1cccc2ccccc12 (single isomer, unassigned) yielded a Ki [1] of 3100 nM, a Ki [2] of 394 nM and a Ki (D(2) dopamine receptor) of 4000 nM.
COc1cccc(C(=O)N[C@@H]2CC3CC[C@H](C2)N3Cc2ccco2)c1OC (single isomer, unassigned; 4b) was tested, and the Activity (Mus musculus [3]) was “inactive”, the Activity (Mus musculus [4]) was “Active” and the Activity (Mus musculus [5]) was “Active”.
With COc1cc(N)c(Cl)cc1C(=O)N[C@H]1CC2CC[C@H](C1)N2Cc1ccco1 (single isomer, unassigned) the Activity (Rattus norvegicus [6]) was 2.6, the Activity (Rattus norvegicus [7]) was 2.7 and the Activity (Mus musculus [8]) was “inactive”. For the same molecule, the Activity (Mus musculus [9]) was “inactive”, the Ki [1] was 2500 nM and the Ki [2] was 16.6 nM. For the same molecule, the Ki (D(2) dopamine receptor) was 18.2 nM, the Activity (Mus musculus [10]) was “Active” and the Activity (Mus musculus [11]) was “Active”. The Activity (Mus musculus [12]) was “Active”, the Activity (Mus musculus [13]) was 68% and the Activity (Mus musculus [14]) was 97%. The Activity (Mus musculus [15]) was 100%, the Activity (Rattus norvegicus [16]) was 0.2 and the Activity (Rattus norvegicus [17]) was 0.1. The deltaT (Mus musculus [18]) was 0 °C, the deltaT (Mus musculus [19]) was -0.3 °C and the deltaT (Mus musculus [20]) was -1.8 °C. For the same molecule, the deltaT (Mus musculus [21]) was -0.3 °C, the deltaT (Mus musculus [22]) was -0.2 °C and the deltaT (Mus musculus [23]) was -1 °C. For the same molecule, the deltaT (Mus musculus [24]) was 0.1 °C, the deltaT (Mus musculus [25]) was -0.1 °C and the deltaT (Mus musculus [26]) was -1 °C. It also gave a deltaT (Mus musculus [27]) of 0.1 °C, a deltaT (Mus musculus [28]) of -0.1 °C and a deltaT (Mus musculus [29]) of -0.9 °C. The deltaT (Mus musculus [30]) was -1.3 °C, the deltaT (Mus musculus [31]) was -0.8 °C and the Activity (Mus musculus [5]) was “Active”.
